Experimental data as given in ChEMBL document CHEMBL1649219, “Imidocarb dipropionate clears persistent Babesia caballi infection with elimination of transmission potential” (Antimicrob Agents Chemother, 2009).
Active and inactive are the calls of the source.

Legend:
Format in all cases: functional, organism-based
Set-up in all cases: dose 4 mg/kg
Babesia caballi [1] = test: Antiparasitic activity against Babesia caballi infected in horse assessed as reduction in parasite specific antibodies at 4 mg/kg, im dosed 4 times at 72 hrs intervals administered 70 days postinfection measured 201 days post dose by C-ELISA
Babesia caballi [2] = test: Antiparasitic activity against Babesia caballi receiving blood from 4 times 4 mg/kg, im compound treated donor horse infected with Babesia caballi assessed as reduction in parasite specific antibodies measured after 100 days post-parasite transmission by C-ELISA
Babesia caballi [3] = test: Antiparasitic activity against Babesia caballi receiving ticks from 4 times 4 mg/kg, im compound treated donor horse infected with Babesia caballi assessed as reduction in parasite specific antibodies measured after 100 days post-parasite transmission by C-ELISA
Babesia caballi [4] = test: Antiparasitic activity against Babesia caballi receiving blood from 4 times 4 mg/kg, im compound treated donor horse infected with Babesia caballi assessed as reduction in parasite level measured after 100 days post-parasite transmission by nested PCR
Babesia caballi [5] = test: Antiparasitic activity against Babesia caballi receiving ticks from 4 times 4 mg/kg, im compound treated donor horse infected with Babesia caballi assessed as reduction in parasite level measured after 100 days post-parasite transmission by nested PCR
Babesia caballi [6] = test: Antiparasitic activity against Babesia caballi infected in horse assessed as reduction in parasite specific antibodies at 4 mg/kg, im dosed 4 times at 72 hrs intervals administered 70 days postinfection measured 222 days post dose by immunoblot
Babesia caballi [7] = test: Antiparasitic activity against Babesia caballi infected in horse assessed as reduction in parasite level at 4 mg/kg, im dosed 4 times at 72 hrs intervals administered 70 days postinfection and measured 5 days post last dose by quantitative PCR
Babesia caballi [8] = test: Antiparasitic activity against Babesia caballi infected in horse assessed as reduction in parasite specific antibodies at 4 mg/kg, im dosed 4 times at 72 hrs intervals administered 70 days postinfection measured 56 days post dose by complement fixation assay
Babesia caballi [9] = test: Antiparasitic activity against Babesia caballi infected in horse assessed as reduction in parasite level at 4 mg/kg, im dosed 4 times at 72 hrs intervals administered 70 days postinfection and measured 5 days post last dose by nested PCR

Measured: Activity

O=C(Nc1cccc(C2=NCCN2)c1)Nc1cccc(C2=NCCN2)c1
active: all assays above
